Patent publication US11358985B2, “Tripeptide compound, preparation method therefor, and application thereof” (NORTHWEST UNIVERSITY, priority 2014, dated 2022)

Assays:
mouse ACE = experiment: In vivo ACE activity test: ACE content in kidney tissue by double antibody sandwich ELISA; design: species or system Kunming mice; settings: for ACE content: male Kunming mice, kidney homogenate, intragastric 0.05 mmol/kg once a day for 7 days, 2 h after final dose
[1] = biological target: angiotensin-converting enzyme (ACE) (UniProt P12822); assay type: biochemical; settings: substrate HHL, 37° C., pH 8.3, hippuric acid at 228 nm
[2] = tested on: spontaneously hypertensive rats (SHR); experiment: Blood pressure in SHR rats after one administration (tail pulse indirect pressure measurement); assay type: in vivo, rat
Protocol: (§1) SPF grade male spontaneously hypertensive model rats (SHR) (male, 12 weeks old, body weight 200 g±20 g) were divided into three groups: blank group, control group and sample group, with 6 rats each group. Animals were housed in the Shaanxi Provincial Biomedical Animal Laboratory at the School of Life Sciences of Northwest University at a temperature of 22° C. and a humidity of 50%, with 12 hours light/dark cycle and free to eat and drink water. The SHR rats were trained to adapt to blood pressure measurements after 5 days of adaptation to the environment. Prior to administration, the basal blood pressure of the rats in each group was measured and the systolic blood pressure was between 190±5 mmHg.
The systolic blood pressure of the experimental rats was measured by tail pulse indirect pressure measurement. […]
The particular measurement steps: the conscious rats were placed in the fixed box of the blood pressure meter. A heating plate at 30° C. was provided in the bottom of the fixed box, which was preheated for 10 min to expand the local blood vessels. […] After the signal was stabilized, the blood pressure was measured and the 5 readings with a change in blood pressure less than 10 mmHg were recorded, with an interval of 10 seconds. […]

[3] = tested on: spontaneously hypertensive rats (SHR); experiment: Blood pressure in SHR rats after multiple administrations; assay type: in vivo, rat
Protocol: as §1
The particular measurement steps: the conscious rats were placed in the fixed box of the blood pressure meter. […] After the signal was stabilized, the blood pressure was measured and the 5 readings with a change in blood pressure less than 10 mmHg were recorded, with an interval of 10 seconds. […]
According to the above method and dose, rats were administered intragastrically continuously for 7 days, once a day. Blood pressure was measured 2 hours after administration. After the end of the administration, blood pressure was measured continuously for 7 days, once a day, and the change in blood pressure was recorded.

Sequence of angiotensin-converting enzyme (ACE) (P12822 whole entry): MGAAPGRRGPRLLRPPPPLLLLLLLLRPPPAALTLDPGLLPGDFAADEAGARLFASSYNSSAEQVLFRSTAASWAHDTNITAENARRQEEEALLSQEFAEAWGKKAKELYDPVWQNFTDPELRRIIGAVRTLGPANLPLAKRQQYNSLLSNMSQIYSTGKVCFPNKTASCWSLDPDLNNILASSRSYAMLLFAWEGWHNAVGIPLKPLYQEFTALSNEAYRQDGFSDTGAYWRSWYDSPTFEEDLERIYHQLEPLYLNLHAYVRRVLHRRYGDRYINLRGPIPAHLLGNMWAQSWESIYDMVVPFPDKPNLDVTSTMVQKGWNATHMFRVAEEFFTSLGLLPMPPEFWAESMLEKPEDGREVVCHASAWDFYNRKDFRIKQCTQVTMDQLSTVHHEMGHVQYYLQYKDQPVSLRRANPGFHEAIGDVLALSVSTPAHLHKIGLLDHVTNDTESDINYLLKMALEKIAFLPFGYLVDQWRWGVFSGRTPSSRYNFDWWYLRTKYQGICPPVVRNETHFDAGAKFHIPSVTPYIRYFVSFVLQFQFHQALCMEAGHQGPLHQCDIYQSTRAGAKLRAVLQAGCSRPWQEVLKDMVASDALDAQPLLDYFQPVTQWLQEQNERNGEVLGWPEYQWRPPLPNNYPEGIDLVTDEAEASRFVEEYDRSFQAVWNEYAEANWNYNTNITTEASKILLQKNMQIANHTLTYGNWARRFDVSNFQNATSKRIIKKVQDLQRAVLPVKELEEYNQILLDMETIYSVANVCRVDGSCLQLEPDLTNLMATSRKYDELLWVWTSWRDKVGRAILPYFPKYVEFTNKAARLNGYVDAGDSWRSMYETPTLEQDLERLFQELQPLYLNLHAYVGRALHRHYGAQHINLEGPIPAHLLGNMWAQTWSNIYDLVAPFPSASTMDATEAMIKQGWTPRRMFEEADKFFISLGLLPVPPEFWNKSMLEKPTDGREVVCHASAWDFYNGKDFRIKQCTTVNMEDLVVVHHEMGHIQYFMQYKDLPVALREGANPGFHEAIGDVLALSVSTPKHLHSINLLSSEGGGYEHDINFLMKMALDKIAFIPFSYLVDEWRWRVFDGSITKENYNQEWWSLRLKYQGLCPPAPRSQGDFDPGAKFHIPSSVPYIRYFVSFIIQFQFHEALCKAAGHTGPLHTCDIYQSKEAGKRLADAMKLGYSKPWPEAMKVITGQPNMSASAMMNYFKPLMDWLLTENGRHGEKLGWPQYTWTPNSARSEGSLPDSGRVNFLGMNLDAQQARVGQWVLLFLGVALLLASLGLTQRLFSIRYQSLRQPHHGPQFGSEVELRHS

Structure (SMILES) | ACE content (mouse ACE) [pg/mL] | IC50 [1] [nM] | further results
C[C@H](NC(=O)c1ccc(O)c(O)c1)C(=O)N1CCC[C@H]1C(=O)OC1CC2CCC1(C)C2(C)C (stereo partly drawn) [Compound 221S-30a] | 75 ± 8 | 35 ± 6 | –
C[C@H](NC(=O)c1cc(O)c(O)c(O)c1)C(=O)N1CCC[C@H]1C(=O)OC1CC2CCC1(C)C2(C)C (stereo partly drawn) [Compound 221S-31a] | 71 ± 13 | 31 ± 8 | –
CC1(C)C2CCC1(C)C(OC(=O)[C@@H]1CCCN1C(=O)[C@H](Cc1ccccc1)NC(=O)[C@H](O)Cc1ccc(O)c(O)c1)C2 (stereo partly drawn) [Compound 221S-8a] | 80 ± 7 | 65 ± 5 | –
CCC(C)[C@H](NC(=O)[C@H](O)Cc1ccc(O)c(O)c1)C(=O)N1CCC[C@H]1C(=O)OC1CC2CCC1(C)C2(C)C (stereo partly drawn) [Compound 221S-4a] | 82 ± 10 | 34 ± 7 | –
CC(C)C[C@H](NC(=O)[C@H](O)Cc1ccc(O)c(O)c1)C(=O)N1CCC[C@H]1C(=O)OC1CC2CCC1(C)C2(C)C (stereo partly drawn) [Compound 221S-3a] | 79 ± 7 | 27 ± 7 | –
C[C@H](NC(=O)Cc1ccc(O)c(O)c1)C(=O)N1CCC[C@H]1C(=O)OC1CC2CCC1(C)C2(C)C (stereo partly drawn) [Compound 221S-29a] | 85 ± 8 | 38 ± 5 | –
C[C@H](NC(=O)/C=C/c1ccc(O)c(O)c1)C(=O)N1CCC[C@H]1C(=O)OC1CC2CCC1(C)C2(C)C (stereo partly drawn) [Compound 221S-28a] | 79 ± 8 | 29 ± 7 | –
COc1cc(/C=C/C(=O)N[C@@H](C)C(=O)N2CCC[C@H]2C(=O)OC2CC3CCC2(C)C3(C)C)ccc1O (stereo partly drawn) [Compound 221S-27a] | 82 ± 11 | 44 ± 3 | –
CC(C)[C@H](NC(=O)[C@H](O)Cc1ccc(O)c(O)c1)C(=O)N1CCC[C@H]1C(=O)OC1CC2CCC1(C)C2(C)C (stereo partly drawn) [Compound 221S-2a] | 87 ± 8 | 37 ± 5 | –
C[C@H](NC(=O)[C@@H](O)Cc1ccc(O)c(O)c1)C(=O)N1CCC[C@H]1C(=O)OC1CC2CCC1(C)C2(C)C (stereo partly drawn) [Compound 221S-1b] | 78 ± 12 | 33 ± 6 | –
C[C@H](NC(=O)[C@H](O)Cc1ccc(O)c(O)c1)C(=O)N1CCC[C@H]1C(=O)OC1CC2CCC1(C)C2(C)C (stereo partly drawn) [Compound 221S-1a] | 64 ± 8 | 23 ± 9 | dose dependence of antihypertensive effect ([2]; single intragastric administration at different doses, within 6 hours (FIG. 3)): good dose-dependent relationship; antihypertensive effect (arterial systolic pressure) compared with captopril ([2]; single intragastric administration, within 6 hours (FIG. 2, 3)): antihypertensive effect was better than that of captopril; reduction of ACE content compared with captopril (in words) (mouse ACE; intragastric 0.05 mmol/kg, 7 days, summary of Table 8): most significant reduction effect; dose dependence of effect on arterial systolic pressure ([3]; 7 days intragastric at different doses, 14 days (FIG. 5)): dose-dependent; antihypertensive effect (arterial systolic pressure) compared with captopril ([3]; intragastric once a day for 7 days, followed over 14 days (FIG. 4)): better antihypertensive effect than captopril
CC1(C)C2CCC1(C)C(OC(=O)[C@@H]1CCCN1C(=O)[C@@H]1CCCN1C(=O)[C@H](O)Cc1ccc(O)c(O)c1)C2 (stereo in doubt) [Compound 221S-6a] | 76 ± 5 | 43 ± 6 | –
CSCC[C@H](NC(=O)[C@H](O)Cc1ccc(O)c(O)c1)C(=O)N1CCC[C@H]1C(=O)OC1CC2CCC1(C)C2(C)C (stereo partly drawn) [Compound 221S-7a] | 71 ± 9 | 78 ± 5 | –
CC(C)(C)[C@H](NC(=O)[C@H](O)Cc1ccc(O)c(O)c1)C(=O)N1CCC[C@H]1C(=O)OC1CC2CCC1(C)C2(C)C (stereo partly drawn) [Compound 221S-5a] | 89 ± 11 | 28 ± 9 | –
CC1(C)C2CCC1(C)C(OC(=O)[C@@H]1CCCN1C(=O)CNC(=O)[C@H](O)Cc1ccc(O)c(O)c1)C2 (stereo partly drawn) [Compound 221S-15a] | 83 ± 11 | 33 ± 6 | –
